Data as given in the NIST ThermoML archive (doi:10.1016/j.tca.2009.07.002).
± gives the expanded uncertainty stated by the source.

Experiments:
[1] = xn = mol fraction of the nth substance listed; conditions: 101 kPa, Liquid, Vibrating tube method
[2] = 101 kPa, Liquid, Vibrating tube method

A mass density ([1]; 288.15 K, x1 = 1) of 813.373 ± 0.18 kg/m3, a mass density ([1]; 293.15 K, x1 = 1) of 809.573 ± 0.18 kg/m3 and a mass density ([1]; 298.15 K, x1 = 1) of 805.762 ± 0.18 kg/m3 were found for `CCCCO` [butan-1-ol] + NC1CCCCC1 in this work. The mass density ([1]; 303.15 K, x1 = 1) was 801.923 ± 0.18 kg/m3, the mass density ([1]; 308.15 K, x1 = 1) was 798.053 ± 0.19 kg/m3 and the mass density ([1]; 313.15 K, x1 = 1) was 794.147 ± 0.19 kg/m3. The mass density ([1]; 318.15 K, x1 = 1) was 790.231 ± 0.19 kg/m3 and the mass density ([1]; 323.15 K, x1 = 1) was 786.238 ± 0.19 kg/m3.
A mass density ([2]; 288.15 K) of 871.29 ± 0.3 kg/m3, a mass density ([2]; 293.15 K) of 866.747 ± 0.3 kg/m3 and a mass density ([2]; 298.15 K) of 862.207 ± 0.3 kg/m3 were found for `NC1CCCCC1` [cyclohexylamine] in this work. The mass density ([2]; 303.15 K) was 857.671 ± 0.3 kg/m3, the mass density ([2]; 308.15 K) was 853.138 ± 0.3 kg/m3 and the mass density ([2]; 313.15 K) was 848.607 ± 0.3 kg/m3. The mass density ([2]; 318.15 K) was 844.073 ± 0.3 kg/m3 and the mass density ([2]; 323.15 K) was 839.547 ± 0.3 kg/m3.
A mass density ([2]; 288.15 K) of 813.373 ± 0.18 kg/m3, a mass density ([2]; 293.15 K) of 809.573 ± 0.18 kg/m3 and a mass density ([2]; 298.15 K) of 805.762 ± 0.18 kg/m3 were found for `CCCCO` [butan-1-ol] in this work. For the same molecule, the mass density ([2]; 303.15 K) was 801.923 ± 0.18 kg/m3, the mass density ([2]; 308.15 K) was 798.053 ± 0.19 kg/m3 and the mass density ([2]; 313.15 K) was 794.147 ± 0.19 kg/m3. It also gave a mass density ([2]; 318.15 K) of 790.231 ± 0.19 kg/m3 and a mass density ([2]; 323.15 K) of 786.238 ± 0.19 kg/m3.
A mass density ([2]; 288.15 K) of 687.954 ± 0.23 kg/m3, a mass density ([2]; 293.15 K) of 683.733 ± 0.23 kg/m3 and a mass density ([2]; 298.15 K) of 679.494 ± 0.23 kg/m3 were found for `CCCCCCC` [heptane] in this work. For the same molecule, the mass density ([2]; 303.15 K) was 675.229 ± 0.24 kg/m3, the mass density ([2]; 308.15 K) was 670.941 ± 0.24 kg/m3 and the mass density ([2]; 313.15 K) was 666.621 ± 0.24 kg/m3. The mass density ([2]; 318.15 K) was 662.273 ± 0.24 kg/m3 and the mass density ([2]; 323.15 K) was 657.896 ± 0.24 kg/m3.
A mass density ([1]; 288.15 K, x2 = 0) of 687.954 ± 0.23 kg/m3, a mass density ([1]; 293.15 K, x2 = 0) of 683.733 ± 0.23 kg/m3 and a mass density ([1]; 298.15 K, x2 = 0) of 679.494 ± 0.23 kg/m3 were found for `CCCCCCC` [heptane] + NC1CCCCC1 in this work. For the same molecule, the mass density ([1]; 303.15 K, x2 = 0) was 675.229 ± 0.24 kg/m3, the mass density ([1]; 308.15 K, x2 = 0) was 670.941 ± 0.24 kg/m3 and the mass density ([1]; 313.15 K, x2 = 0) was 666.621 ± 0.24 kg/m3. It also gave a mass density ([1]; 318.15 K, x2 = 0) of 662.273 ± 0.24 kg/m3 and a mass density ([1]; 323.15 K, x2 = 0) of 657.896 ± 0.24 kg/m3.
A mass density ([1]; 288.15 K, x2 = 0) of 687.954 ± 0.23 kg/m3, a mass density ([1]; 293.15 K, x2 = 0) of 683.733 ± 0.23 kg/m3 and a mass density ([1]; 298.15 K, x2 = 0) of 679.494 ± 0.23 kg/m3 were found for `CCCCCCC` [heptane] + CCCCO in this work. The mass density ([1]; 303.15 K, x2 = 0) was 675.229 ± 0.24 kg/m3, the mass density ([1]; 308.15 K, x2 = 0) was 670.941 ± 0.24 kg/m3 and the mass density ([1]; 313.15 K, x2 = 0) was 666.621 ± 0.24 kg/m3. For the same molecule, the mass density ([1]; 318.15 K, x2 = 0) was 662.273 ± 0.24 kg/m3 and the mass density ([1]; 323.15 K, x2 = 0) was 657.896 ± 0.24 kg/m3.
